Laboratory results from ChEMBL document CHEMBL1201862, “PubChem BioAssay data set” (2004).
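Interpolation was linear, between the two tested concentrations surrounding the appropriate level; five concentrations were tested over 48 hours in 96-well plates. At the GI50, growth is halved.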 Calls of active or inactive are those of the source. No stated cut-off is given here; in the data, active = GI50 up to about 1.1 µM and inactive = higher.

How the values were obtained:
Assay in all cases: DTP human tumour cell line panel, 48 h
[1] = tested on: HCT-15
[2] = tested on: 786-0
[3] = tested on: NCI-H23
[4] = tested on: HOP-62
[5] = tested on: ACHN
[6] = tested on: UACC-257
[7] = tested on: HOP-92
[8] = tested on: SF-295
[9] = tested on: SF-539
[10] = tested on: SR
[11] = tested on: SK-MEL-2
[12] = tested on: SK-MEL-28
[13] = tested on: HT-29
[14] = tested on: RPMI-8226
[15] = tested on: SW-620
[16] = tested on: SN12C
[17] = tested on: SK-MEL-5

Row | SMILES | GI50 [1] [µM] | GI50 [2] | GI50 [3] | GI50 [4] | GI50 [5] | GI50 [6] | GI50 [7] | GI50 [8] | GI50 [9] | GI50 [10] | GI50 [11] | GI50 [12] | GI50 [13] | GI50 [14] | GI50 [15] | GI50 [16] | GI50 [17]
1 | O=C1CCC2(c3ccc(Cl)cc3)Nc3ccccc3N12 (configuration not stated) | 97.1 | > 100 µM (inactive) | 42.6 µM (inactive) | > 100 µM (inactive) | 60.4 µM (inactive) | > 100 µM (inactive) | 19.9 µM (inactive) | > 100 µM (inactive) | > 100 µM (inactive) | 34.4 µM (inactive) | > 100 µM (inactive) | > 100 µM (inactive) | > 100 µM (inactive) | 53.7 µM (inactive) | > 100 µM (inactive) | > 100 µM (inactive) | –
2 | CN1CN(C(=O)N2CN(C)C(=O)N(C)C2)CN(C)C1=O | > 100 | – | – | > 100 µM (inactive) | > 100 µM (inactive) | > 100 µM (inactive) | – | > 100 µM (inactive) | > 100 µM (inactive) | – | > 100 µM (inactive) | > 100 µM (inactive) | > 100 µM (inactive) | > 100 µM (inactive) | > 100 µM (inactive) | > 100 µM (inactive) | –
3 | Cc1coc2c1C(=O)C(=O)c1ccccc1-2 | 1.27 | 1.84 µM (inactive) | 1.92 µM (inactive) | 1.64 µM (inactive) | – | 0.21 µM (active) | 0.401 µM (active) | 1.65 µM (inactive) | 1.52 µM (inactive) | 1.38 µM (inactive) | 1.87 µM (inactive) | 1.71 µM (inactive) | 1.8 µM (inactive) | – | 1.41 µM (inactive) | 0.838 µM (active) | 0.56 µM (active)
4 | COc1cccc(C2SCc3nc4ccccc4n32)c1 (configuration not stated) | 38.8 | > 100 µM (inactive) | 35 µM (inactive) | > 100 µM (inactive) | 39.1 µM (inactive) | 44.3 µM (inactive) | 12.2 µM (inactive) | 35.7 µM (inactive) | > 100 µM (inactive) | – | 56.2 µM (inactive) | 81.3 µM (inactive) | 41.9 µM (inactive) | – | 46.6 µM (inactive) | 99.1 µM (inactive) | 21.1 µM (inactive)
5 | N#CCC(=O)N/N=C1/C(=O)N(c2cc(Cl)ccc2Cl)C(=O)C(=O)C1c1nc2ccccc2s1 (configuration not stated) | > 100 | > 100 µM (inactive) | > 100 µM (inactive) | > 100 µM (inactive) | > 100 µM (inactive) | > 100 µM (inactive) | 19.8 µM (inactive) | 94.4 µM (inactive) | > 100 µM (inactive) | – | 37.9 µM (inactive) | > 100 µM (inactive) | > 100 µM (inactive) | 56.8 µM (inactive) | 73.5 µM (inactive) | > 100 µM (inactive) | > 100 µM (inactive)
6 | C/C(CCN(C)C)=N\OC(=O)c1ccccc1 | – | > 100 µM (inactive) | > 100 µM (inactive) | > 100 µM (inactive) | > 100 µM (inactive) | > 100 µM (inactive) | > 100 µM (inactive) | 63.7 µM (inactive) | > 100 µM (inactive) | > 100 µM (inactive) | > 100 µM (inactive) | > 100 µM (inactive) | > 100 µM (inactive) | > 100 µM (inactive) | > 100 µM (inactive) | > 100 µM (inactive) | > 100 µM (inactive)
7 | COc1cc2c(cc1OC)[C@@H](C(O)c1ccccc1)NCC2 (some centres not stated) | > 100 | > 100 µM (inactive) | > 100 µM (inactive) | > 100 µM (inactive) | > 100 µM (inactive) | > 100 µM (inactive) | > 100 µM (inactive) | > 100 µM (inactive) | > 100 µM (inactive) | > 100 µM (inactive) | > 100 µM (inactive) | – | > 100 µM (inactive) | – | > 100 µM (inactive) | > 100 µM (inactive) | > 100 µM (inactive)
8 | COc1ccc(-c2onc(-c3c(C)cc(C)cc3C)c2C2=NCCN2)cc1 | 40.3 | 31.1 µM (inactive) | > 100 µM (inactive) | 59.2 µM (inactive) | 86.3 µM (inactive) | 18.7 µM (inactive) | – | 17.6 µM (inactive) | 20 µM (inactive) | 32.2 µM (inactive) | 48.2 µM (inactive) | 22.8 µM (inactive) | 25.5 µM (inactive) | 29 µM (inactive) | 47.2 µM (inactive) | 48.6 µM (inactive) | 17.2 µM (inactive)
9 | CCOC(=O)C1=C(Nc2ccc(Cl)c(Cl)c2)OC/C1=N\NC(=O)Cc1ccccc1 | – | > 100 µM (inactive) | > 100 µM (inactive) | > 100 µM (inactive) | – | 63.7 µM (inactive) | – | > 100 µM (inactive) | > 100 µM (inactive) | – | > 100 µM (inactive) | > 100 µM (inactive) | – | 68.7 µM (inactive) | > 100 µM (inactive) | > 100 µM (inactive) | > 100 µM (inactive)
10 | COC(OC)c1cc2c(cc1C=O)OCO2 | – | > 100 µM (inactive) | > 100 µM (inactive) | > 100 µM (inactive) | > 100 µM (inactive) | > 100 µM (inactive) | 80.7 µM (inactive) | – | > 100 µM (inactive) | > 100 µM (inactive) | > 100 µM (inactive) | > 100 µM (inactive) | > 100 µM (inactive) | – | > 100 µM (inactive) | > 100 µM (inactive) | 30.6 µM (inactive)
11 | COc1ccc(C(=O)Cc2cc(OC)ccc2OC)cc1 | > 100 | – | > 100 µM (inactive) | 66.1 µM (inactive) | > 100 µM (inactive) | > 100 µM (inactive) | – | 48.9 µM (inactive) | > 100 µM (inactive) | > 100 µM (inactive) | > 100 µM (inactive) | – | > 100 µM (inactive) | 75.3 µM (inactive) | > 100 µM (inactive) | > 100 µM (inactive) | > 100 µM (inactive)
12 | CC(=O)NNc1nc(C)c(C(=O)NNC(=O)C(=O)Nc2c(C)cccc2C(C)(C)C)s1 | 59.7 | – | > 100 µM (inactive) | > 100 µM (inactive) | 59.4 µM (inactive) | > 100 µM (inactive) | > 100 µM (inactive) | > 100 µM (inactive) | > 100 µM (inactive) | 48.2 µM (inactive) | > 100 µM (inactive) | > 100 µM (inactive) | 64 µM (inactive) | 45.9 µM (inactive) | > 100 µM (inactive) | 44.2 µM (inactive) | > 100 µM (inactive)
13 | Cc1ccc(C2CC(c3ccc([N+](=O)[O-])cc3)=Nc3ccccc3S2)cc1 (configuration not stated) | 18 | 14.6 µM (inactive) | 19.5 µM (inactive) | 61.5 µM (inactive) | 27.6 µM (inactive) | 28.6 µM (inactive) | – | 27.4 µM (inactive) | 26.2 µM (inactive) | – | 30.3 µM (inactive) | 29 µM (inactive) | 26.6 µM (inactive) | 15.6 µM (inactive) | 20 µM (inactive) | 25.5 µM (inactive) | 17.1 µM (inactive)
14 | CCC(C)n1c(C)nc2c1C(=O)c1ccccc1C2=O (configuration not stated) | 27.2 | 61.2 µM (inactive) | 33.2 µM (inactive) | 58.2 µM (inactive) | 46.9 µM (inactive) | 27.9 µM (inactive) | 22.1 µM (inactive) | 49.8 µM (inactive) | 32.7 µM (inactive) | 47.5 µM (inactive) | > 100 µM (inactive) | 75.7 µM (inactive) | 40.4 µM (inactive) | – | 64.7 µM (inactive) | 57.8 µM (inactive) | 26.9 µM (inactive)
15 | O=c1c2cccnc2ncn1CCCN1CCCCC1 | – | > 100 µM (inactive) | > 100 µM (inactive) | > 100 µM (inactive) | > 100 µM (inactive) | – | > 100 µM (inactive) | > 100 µM (inactive) | > 100 µM (inactive) | > 100 µM (inactive) | > 100 µM (inactive) | > 100 µM (inactive) | > 100 µM (inactive) | – | > 100 µM (inactive) | > 100 µM (inactive) | > 100 µM (inactive)
16 | Cc1nc2c(=O)[nH]c(=O)n(C)c2[nH]c1=O.c1ccncc1 | > 100 | > 100 µM (inactive) | > 100 µM (inactive) | > 100 µM (inactive) | > 100 µM (inactive) | > 100 µM (inactive) | > 100 µM (inactive) | – | – | > 100 µM (inactive) | > 100 µM (inactive) | > 100 µM (inactive) | > 100 µM (inactive) | > 100 µM (inactive) | > 100 µM (inactive) | > 100 µM (inactive) | > 100 µM (inactive)
17 | COc1ccc(NN=C2C(=O)CCC2=O)cc1 | > 100 | > 100 µM (inactive) | 69 µM (inactive) | 50 µM (inactive) | 74.3 µM (inactive) | 52.4 µM (inactive) | > 100 µM (inactive) | 98.9 µM (inactive) | > 100 µM (inactive) | – | > 100 µM (inactive) | > 100 µM (inactive) | > 100 µM (inactive) | – | > 100 µM (inactive) | > 100 µM (inactive) | 48.2 µM (inactive)
18 | CC(C(=O)OCc1ccccc1)N(Cc1ccccc1)Cc1ccccc1 (configuration not stated) | > 100 | – | 45.2 µM (inactive) | > 100 µM (inactive) | 87.3 µM (inactive) | 33.7 µM (inactive) | > 100 µM (inactive) | > 100 µM (inactive) | > 100 µM (inactive) | 31 µM (inactive) | 29.6 µM (inactive) | > 100 µM (inactive) | 46.8 µM (inactive) | 35.9 µM (inactive) | > 100 µM (inactive) | > 100 µM (inactive) | 43.1 µM (inactive)
19 | c1ccc(-c2ccnc3c2ccc2c(-c4ccccc4)ccnc23)cc1 | 1.06 | 2.64 µM (inactive) | 1.85 µM (inactive) | 1.89 µM (inactive) | 1.11 µM (active) | 2.28 µM (inactive) | – | – | 2.06 µM (inactive) | 0.273 µM (active) | 3.37 µM (inactive) | 4.57 µM (inactive) | 1.18 µM (inactive) | – | 3.72 µM (inactive) | 2.26 µM (inactive) | 0.736 µM (active)
